Test results taken from patent publication US9573947B2, “Salt of pyrazoloquinoline derivative, and crystal thereof” (Eisai R&D Management Co., Ltd., priority 2013, dated 2017).

Assays:
[1] = Test on oral absorption characteristics in dogs; format: in vivo, beagle dogs; conditions: oral capsule, 100 mg in terms of the free form; for AREA UNDER PLASMA CONCENTRATION-TIME CURVE, MEAN: mean of 4 beagle dogs
cerebrospinal fluid cGMP = test: Effect on rodent cerebrospinal fluid cGMP; format: in vivo, Long-Evans (LE) male rats; conditions: LE rats, 10 mg/kg, 1 hour post-administration; relative to vehicle group; compound synthesized according to Reference Example 1
Protocol: Test compounds were administered to ICR male mice (CHARLES RIVER LABORATORIES JAPAN, INC.), Sprague-Dawley (SD) male rats (CHARLES RIVER LABORATORIES JAPAN, INC.) or Long-Evans (LE) male rats (Institute for Animal Reproduction (general incorporated foundation)), and then cerebrospinal fluid was collected under pentobarbital anesthesia and stored at −20° C. Measurement of cGMP in cerebrospinal fluid was performed according to the acetylation EIA procedure of cGMP EIA kit (GE Healthcare) or the non-acetylation procedure of cGMP EIA kit (Cayman Chemical).

hippocampal cGMP = test: Effect on rodent hippocampal cGMP; format: in vivo, LE male rats; conditions: LE rats, 10 mg/kg, 1 hour post-administration; relative to vehicle group; compound synthesized according to Reference Example 1
Protocol: Test compounds were administered to SD male rats (CHARLES RIVER LABORATORIES JAPAN, INC.) or LE male rats (Institute for Animal Reproduction (foundation)). Then a microwave treatment was performed under pentobarbital anesthesia, and the hippocampus were isolated, subjected to measurement of their wet weights, then frozen in liquid nitrogen and stored at −80° C. In the measurement of cGMP in the hippocampus, a 0.5 M perchloric acid/1 mM EDTA solution was added so that the wet weight would constitute 5% (w/v), and the mixture was homogenized. After the homogenization, the homogenate was centrifuged (10000 rpm, 15 min), and the supernatant was collected. The collected supernatant was neutralized with a 2 M potassium hydrogen carbonate solution and centrifuged (13000 rpm, 10 min) The cGMP concentration in the supernatant was measured according to the non-acetylation EIA procedure of cGMP EIA kit (GE Healthcare). The results were calculated using the following formula as an increase (C) in the amount of cGMP in the test compound-administered group (B) relative to the amount of cGMP in the vehicle-administered group (A). cGMP increase(C)=[(B)−(A)]/(A)×100(%) In the case of the compound (I) synthesized according to Reference Example 1, the cGMP increase was 58% at 1 hour post-administration of a dose of 10 mg/kg to LE rats.

[2] = Dissolution test in fasted state simulated intestinal fluid; format: physicochemical; conditions: fasted state simulated intestinal fluid pH 6.5, 37° C., 50 rpm, in terms of compound (I)
Protocol: Each of compound (I) (50 mg), the compound of Example 1 (30 mg) and the compound of Example 2 (30 mg) was filled into a hydroxypropyl methylcellulose capsule, together with an equal weight of lactose hydrate. A 708-DS from Agilent Technologies was equipped with small stirring paddles and small vessels, and used as a dissolution test apparatus. Each drug-filled capsule was added to 50 ml of fasted state simulated intestinal fluid (a phosphate buffer pH 6.5 containing 0.75 mM lecithin and 3 mM sodium taurocholate) which had been warmed to 37° C. The drug was dissolved by rotating the stirring paddle at a speed of 50 rpm. The dissolved solution was sampled over time and the drug concentrations were measured by HPLC. Such dissolution tests using fasted state simulated intestinal fluid are often used to evaluate the dissolution and absorption characteristics of drugs (e.g., Takano et al., “Oral absorption of poorly water-soluble drugs: computer simulation of fraction absorbed in humans from a miniscale dissolution test”, Pharm Res., vol. 23, pp. 1144-1156, 2006). The results were shown in Table 1 and the graph in FIG. 12.

COc1ncc(C)c(-c2ccc3c(c2)[nH]c(=O)c2cnn([C@H]4CCOC4)c23)c1C [compound (I), (S)-7-(2-methoxy-3,5-dimethylpyridin-4-yl)-1-(tetrahydrofuran-3-yl)-1H-pyrazolo[4,3-c]quinolin-4(5H)-one]
PLASMA CONCENTRATION ([1]; Dog 1, 0.25 hours): BQL | PLASMA CONCENTRATION ([1]; Dog 1, 0.5 hours): 5 ng/mL | PLASMA CONCENTRATION ([1]; Dog 1, 1 hour): 55 ng/mL | PLASMA CONCENTRATION ([1]; Dog 1, 2 hours): 94 ng/mL | PLASMA CONCENTRATION ([1]; Dog 1, 4 hours): 64 ng/mL | PLASMA CONCENTRATION ([1]; Dog 1, 6 hours): 45 ng/mL | PLASMA CONCENTRATION ([1]; Dog 1, 8 hours): 43 ng/mL | PLASMA CONCENTRATION ([1]; Dog 1, 24 hours): 234 ng/mL | AREA UNDER PLASMA CONCENTRATION-TIME CURVE ([1]; Dog 1): 2660 ng·h/mL | PLASMA CONCENTRATION ([1]; Dog 2, 0.25 hours): BQL | PLASMA CONCENTRATION ([1]; Dog 2, 0.5 hours): 29 ng/mL | PLASMA CONCENTRATION ([1]; Dog 2, 1 hour): 67 ng/mL | PLASMA CONCENTRATION ([1]; Dog 2, 2 hours): 61 ng/mL | PLASMA CONCENTRATION ([1]; Dog 2, 4 hours): 51 ng/mL | PLASMA CONCENTRATION ([1]; Dog 2, 6 hours): 45 ng/mL | PLASMA CONCENTRATION ([1]; Dog 2, 8 hours): 41 ng/mL | PLASMA CONCENTRATION ([1]; Dog 2, 24 hours): 7 ng/mL | AREA UNDER PLASMA CONCENTRATION-TIME CURVE ([1]; Dog 2): 770 ng·h/mL | PLASMA CONCENTRATION ([1]; Dog 3, 0.25 hours): BQL | PLASMA CONCENTRATION ([1]; Dog 3, 0.5 hours): 34 ng/mL | PLASMA CONCENTRATION ([1]; Dog 3, 1 hour): 142 ng/mL | PLASMA CONCENTRATION ([1]; Dog 3, 2 hours): 133 ng/mL | PLASMA CONCENTRATION ([1]; Dog 3, 4 hours): 104 ng/mL | PLASMA CONCENTRATION ([1]; Dog 3, 6 hours): 77 ng/mL | PLASMA CONCENTRATION ([1]; Dog 3, 24 hours): 9 ng/mL | AREA UNDER PLASMA CONCENTRATION-TIME CURVE ([1]; Dog 3): 1430 ng·h/mL | PLASMA CONCENTRATION ([1]; Dog 4, 0.25 hours): BQL | PLASMA CONCENTRATION ([1]; Dog 4, 0.5 hours): BQL | PLASMA CONCENTRATION ([1]; Dog 4, 1 hour): 17 ng/mL | PLASMA CONCENTRATION ([1]; Dog 4, 24 hours): 28 ng/mL | AREA UNDER PLASMA CONCENTRATION-TIME CURVE ([1]; Dog 4): 2680 ng·h/mL | concentration at 8 h ([1]; beagle, dog, plasma, po, 100 mg, Dog 3, 8 hours): 74 ng/mL | concentration at 2 h ([1]; beagle, dog, plasma, po, 100 mg, Dog 4, 2 hours): 227 ng/mL | concentration at 4 h ([1]; beagle, dog, plasma, po, 100 mg, Dog 4, 4 hours): 208 ng/mL | concentration at 6 h ([1]; beagle, dog, plasma, po, 100 mg, Dog 4, 6 hours): 164 ng/mL | concentration at 8 h ([1]; beagle, dog, plasma, po, 100 mg, Dog 4, 8 hours): 151 ng/mL | concentration at 24 h ([1]; beagle, dog, plasma, po, 100 mg, mean of dogs, 24 hours): 69 ng/mL | AREA UNDER PLASMA CONCENTRATION-TIME CURVE, MEAN [1]: 1880 ± 950 ng·h/mL | AREA UNDER PLASMA CONCENTRATION-TIME CURVE, MEAN ([1]; listed as COMPOUND (I)): 1880 ng·h/mL | PLASMA CONCENTRATION MEAN ([1]; mean of dogs, 0.5 hours): 23 ng/mL | PLASMA CONCENTRATION MEAN ([1]; mean of dogs, 1 hour): 70 ng/mL | PLASMA CONCENTRATION MEAN ([1]; mean of dogs, 2 hours): 129 ng/mL | PLASMA CONCENTRATION MEAN ([1]; mean of dogs, 4 hours): 106 ng/mL | PLASMA CONCENTRATION MEAN ([1]; mean of dogs, 6 hours): 83 ng/mL | PLASMA CONCENTRATION MEAN ([1]; mean of dogs, 8 hours): 77 ng/mL | cGMP increase in cerebrospinal fluid (cerebrospinal fluid cGMP): 274% | cGMP increase in hippocampus (hippocampal cGMP): 58% | CONCENTRATION (dissolution) ([2]; 6 minutes): 100 ng/mL | CONCENTRATION (dissolution) ([2]; 10 minutes): 300 ng/mL | CONCENTRATION (dissolution) ([2]; 15 minutes): 1800 ng/mL | CONCENTRATION (dissolution) ([2]; 20 minutes): 3200 ng/mL | CONCENTRATION (dissolution) ([2]; 30 minutes): 4400 ng/mL | CONCENTRATION (dissolution) ([2]; 60 minutes): 5000 ng/mL | CONCENTRATION (dissolution) ([2]; 90 minutes): 5200 ng/mL | CONCENTRATION (dissolution) ([2]; 120 minutes): 5100 ng/mL | CONCENTRATION (dissolution) ([2]; 180 minutes): 5200 ng/mL | CONCENTRATION (dissolution) ([2]; 240 minutes): 5400 ng/mL
